Experimental data from patent US20240409746A1, “AZO IRON COMPLEX DYE, INK COMPOSITION CONTAINING SAME, AND METHOD FOR PRODUCING AZO IRON COMPLEX DYE” (ORIENT CHEMICAL INDUSTRIES CO., LTD., priority 2021, published 2024).

Tests used:
Format in all cases: physicochemical
[1] = Visual observation of hue of 5% solution of the azo iron complex dye; settings: for Hue of 5% methyl ethyl ketone solution with azo iron complex dye: 5% in methyl ethyl ketone, visually observed
Protocol: A solution of the azo iron complex dye A-1 in methyl ethyl ketone was prepared at a concentration of 10 mg/1000 ml (10 ppm). The absorbance of this solution was measured using an ultraviolet-visible spectrophotometer (available from Shimadzu Corporation; trade name UV-1700).
(§1) Then the azo iron complex dyes solutions were filtered through a membrane filter (pore size 1 μm, PTFE) under reduced pressure, and the maximum concentrations of the azo iron complex dyes were defined as the concentrations at which it was confirmed that there were no insoluble substances on the membrane filter. Then the hue of the methyl ethyl ketone solution with the azo iron complex dyes concentrations of 5% was visually observed.

[2] = Solubility evaluation (maximum concentration with no insoluble substances on the membrane filter); settings: for Maximum concentration (%) Ethanol / Maximum concentration (%) Methyl ethyl ketone: tested at 5%, 10%, 15% and 20%, ultrasonically dispersed 10 minutes, 1 μm PTFE membrane filter
Excerpt: as §1

[3] = Electrical conductivity measurement; settings: 6% solution in methyl ethyl ketone
Excerpt: The azo iron complex dye of the present invention can be suitably used in the ink composition for a CIJ printer. Herein, the electrical conductivity K of the azo iron complex dye is preferably 300-2200 μS/cm, and more preferably 600-2000 μS/cm. As long as the electrical conductivity is within this range, the charge of the ink composition for a CIJ printer containing the azo iron complex dye can be stably and freely controlled, so that the ejection stability of the ink composition can be improved. Note that the electrical conductivity K is measured by inserting and immersing an electrode of an electrical conductivity meter in a 6 mass % methyl ethyl ketone solution of the azo iron complex dye.
A 6% solution of the azo iron complex dye A-1 in methyl ethyl ketone was prepared and measured using an electrical conductivity meter (available from Eutech Instruments Pte, Ltd.; trade name CyberScan CON100). As a result, the electrical conductivity K was 1530 μS/cm. Furthermore, a 6% solution of the azo iron complex dye A-1 in methyl ethyl ketone was prepared and measured using a conductivity meter (available from Knick Co., Ltd.; trade name Conducell 4USF-PG120). As a result, the electrical conductivity K was […].

[4] = Dissolution stability of dye solution on standing

Structure (SMILES) | Hue of 5% methyl ethyl ketone solution with azo iron complex dye [1] | Color of solution adjusted to a concentration of 5% [1] | Maximum concentration (%) Ethanol [2] [%] | Solubility in both methyl ethyl ketone and ethanol (in words) [2] | Maximum concentration (%) Methyl ethyl ketone [2] [%] | Electrical conductivity K ([3]; CyberScan CON100) [μS/cm] | Dissolution stability, left overnight ([4]; 5% solution, left overnight (8 hours)) | Dissolution stability in ethanol ([4]; ethanol solution allowed to stand for 10 minutes) | Electrical conductivity K immediately after dissolution ([3]; immediately after dissolution) [μS/cm]
O=[N+]([O-])c1ccc2c(c1)[O][Fe]1([O]c3cc([N+](=O)[O-])ccc3N=Nc3c(ccc4ccccc34)[O]1)[O]c1ccc3ccccc3c1N=N2 (centres unmarked) [B-1] | reddish brown hue | dark brown color | 5 | good solubility | 10 | 1450 |  |  | 
CCCCN(CCCC)c1ccc2c(c1)[O][Fe]1([O]c3cc(N(CCCC)CCCC)ccc3N=Nc3cc(C)c(N=Nc4ccc(C#N)cc4)cc3[O]1)[O]c1cc(N=Nc3ccc(C#N)cc3)c(C)cc1N=N2 (centres unmarked) [B-2] | black color within a practical range | sufficient black color | <5 | low solubility | 5 |  | precipitation was observed | precipitate was confirmed | 165
